What is called melting point is the temperature of the solid-liquid transition.

Residues, ends and D or L forms follow the SMILES beside them. *: point of attachment. Cbz = O=C(OCc1ccccc1)* Some results are limits rather than exact numbers.

Compound `CCOc1cccc2c1Sc1ccccc1C2` yielded a melting point of 95 to 98 °C.

Compound `CCN(CC)c1ccc2nc3c4ccccc4c(=Nc4cc(C)nc5ccccc45)cc-3oc2c1` came in with a melting point of 229 to 230 °C.

Take `CCC(=NC#N)N[C@@H]1c2cc(C#N)ccc2OC(C)(C)[C@H]1O` (relative stereo): the melting point is 122 to 124 °C.

Take `CCOCc1nc2c(N)nc3cccnc3c2n1CCCON=C1CCN(C)CC1`: the melting point lay in the range of 111 to 112 °C.

Take `Cc1ccc(-c2cn(C)cc(-c3ccc(Cl)c(Cl)c3)c2=O)cc1C`: the melting point is 150 to 152 °C.

In the case of `CC(=O)Oc1ccc(N2CCN(C(C)=O)CC2)c(Br)c1`, the melting point turned out to be 75 °C.

In the case of `Cc1ncnn1-c1ccc([N+](=O)[O-])cc1F`, the melting point fell in the range of 56 to 58 °C.

In the case of `O=C(Nc1c([N+](=O)[O-])cnn1-c1c(Cl)cc(C(F)(F)F)cc1Cl)C1CCCO1` (stereo unspecified), the melting point was 169 to 172 °C.

For `C=CC(=O)Nc1ccc2c(Nc3cccc(Cl)c3)ncnc2c1`, the melting point lay in the range of 296 to 298 °C.

In turn, `COC(=O)c1cccc(-n2cncn2)c1` displayed a melting point of 115 to 120 °C.

Regarding `COc1ccc(C(=O)Nc2c(Cl)cncc2Cl)c2c1oc1ccc([N+](=O)[O-])cc12`, the melting point is 315 to 317 °C.

Compound `O=C(O)c1ccc(NC(=O)c2sc3c([N+](=O)[O-])c(O)c(O)cc3c2Cl)cc1` displayed a melting point of 298 to 300 °C.

`CCCC(=O)Oc1ccc(S(=O)(=O)CS(N)(=O)=O)cc1` displayed a melting point of 160 to 161 °C.

Consider `CCC1c2[nH]c3ccccc3c2CC(C(=O)O)N1C(=S)SC` (stereo unspecified), for which the melting point was in the range of 155 to 157 °C.

For `CCOC(=O)c1ccc(NC(=O)N2CCn3c(c(C(N)=O)c(Cl)c3-c3ccccc3)C2)cc1`, the melting point lay in the range of 260 to 262 °C.

Turning to `Cc1n[nH]c2cc(-c3nn(C(C)c4oc5cccc(F)c5c(=O)c4-c4cccc(F)c4)c4ncnc(N)c34)ccc12` (stereo unspecified), the melting point was in the range of 156 to 159 °C.

Compound `CN(C)C=Cc1ncc([N+](=O)[O-])n1CCO` returned a melting point of 155 to 157 °C.

Consider `O=C(O)C(=O)c1ccc(OCCOc2ccc(C(F)(F)F)cc2)cc1`, for which the melting point was in the range of 121 to 123 °C.

`COC1(Nc2ccccc2CCCc2ccc(Cl)c(Cl)c2)CC=C(C(=O)O)C=C1[N+](=O)[O-]` (stereo unspecified) gave a melting point of 127 to 129 °C.

`O=C(NCCCCCC1CCSS1)c1ccccc1` (stereo unspecified): the melting point lay in the range of 58 to 59 °C.

The compound `C=COCCOc1ccc(C2(c3ccc(OCCOC=C)cc3)CCC(c3ccc(OCCOC=C)cc3)(c3ccc(OCCOC=C)cc3)CC2)cc1` came in with a melting point of 138 to 139 °C.

With `O=C(CC1CSCCC1=O)c1ccccc1` (stereo unspecified), the melting point fell in the range of 102 to 104 °C.

The compound `CCCCCCCCCCCC(=O)OCc1ccccc1-c1nc(-c2cccc(OC)c2)n[nH]1` showed a melting point of 45 °C.

As for `O=[N+]([O-])C=C(NCc1cccnc1)N1CCCCC1`, the melting point is 106 to 108 °C.

On to `CC(C)(C)OC(=O)C(Nc1ccccc1)c1ccccc1Cl` (racemic), for which the melting point turned out to be 74 °C.

Turning to `N#Cc1c(Cl)ccc(Cl)c1Cl`, the melting point lay in the range of 117 to 119 °C.

On to `CC1CC(=O)c2c(ccc(F)c2Cl)N1` (single isomer, unassigned; (-)), for which the melting point fell in the range of 117 to 119 °C.

As for `O=C(c1ccccc1)n1c2ccccc2c2cc(O)c(O)cc21`, the melting point fell in the range of 260 to 261 °C.

In turn, `CCNC(=O)C(C)NC(=O)C(C)NC(=O)C1CCCN1C(=O)OCc1ccccc1` (stereo not drawn) (Cbz-Pro-Ala-Ala-NHEt; configuration not given here) displayed a melting point of 219 to 220 °C.

`Nc1cc(C(F)(F)C(F)(F)F)no1` registered a melting point of 86 to 87 °C.

As to `CC1NC(=O)NN=C1c1ccc(OCC(=O)NCCN2CCN(S(C)(=O)=O)CC2)c(Cl)c1` (stereo unspecified), the melting point is 236 to 238 °C.

In turn, `CN(C)c1ccc(-c2cc3nccnc3[nH]2)cc1` returned a melting point of 297 to 298 °C.

Take `Nc1cc(Cl)nc(SCc2cccc(O)c2)n1`: the melting point was found to be 148 °C.

`CCOC(=O)C(=O)c1oc(-n2cnc3ccccc32)nc1-c1ccc(Cl)cc1`: the melting point lay in the range of 143 to 144 °C.

For the compound `COC(=O)CC1CCN(CCC=C2c3ccccc3OCOc3ccccc32)C1` (stereo unspecified), the melting point is 70 to 90 °C.

Consider `COc1nnc(-c2ccccc2)c(=O)n1N`, for which the melting point is 165 °C.

With `COC(C)=CC(=O)Nc1cccc(Br)c1`, the melting point was 110 °C.

The compound `CCCCNc1cccc([N+](=O)[O-])c1C#N` came in with a melting point of 72 to 74 °C.

As to `Nc1cc(Oc2ccccc2)ccc1[N+](=O)[O-]`, the melting point turned out to be 72 °C.

Turning to `Cc1cccc(-c2cc(C(F)(F)F)n3cnc(C#N)c3n2)c1`, the melting point stood at 202 °C.

`COC(=S)OC(C(=O)O)c1ccccc1` (stereo unspecified): the melting point was in the range of 86 to 87 °C.

`CCCCCCCCCCC(O)C[N+]1([O-])CCOCC1` (stereo unspecified) showed a melting point of 151 to 152 °C.

The compound `COc1cccc2c1C(=O)c1ccccc1C21CCN(C)CC1` came in with a melting point of 170 to 172 °C.

Compound `CC(C)(C)c1cc(C(O)C#Cc2ccc(C(=O)O)cc2)cc(C(C)(C)C)c1OCOCC[Si](C)(C)C` (stereo unspecified) showed a melting point of 155 to 156 °C.

With `COC(=O)CCCc1cc2cc(C(F)(F)F)ccc2[nH]1`, the melting point amounted to 115 °C.

As to `CCn1c2c(c3ccccc31)C=CN(C(=O)OC)C=C2C(=O)OC`, the melting point was found to be 129 °C.

The compound `O=C1COCCN1c1ccc([N+](=O)[O-])cc1` returned a melting point of 150 to 152 °C.

On to `Cn1ncc(C(=O)N2CCCC2)c1C(=O)Nc1ccn2nc(-c3cccnc3)nc2c1`, for which the melting point lay in the range of 226 to 228 °C.

The compound `CCOC(=O)c1ccc(OCCCCCCc2cc(C)no2)cc1` came in with a melting point of 51 °C.

Turning to `CCCCc1nc(CO)c(C(=O)NCC(=O)O)n1Cc1ccc(-c2ccccc2C(=O)O)cc1`, the melting point was greater than 110 °C.

In turn, `Nc1cc(Cl)c(Cl)c(Cl)c1N` gave a melting point of 109 to 111 °C.

For the compound `CC(C)CC(NC1OC(=O)C2C3C=CC(C3)C12)C(=O)OCc1ccccc1` (stereo unspecified), the melting point was 88 °C.

Compound `O=C1C(c2ccccc2)=C2CCCCC2N1c1ccc(O)cc1` (stereo unspecified) showed a melting point of 168 °C.

Consider `Cc1cc([N+](=O)[O-])ccc1N=C1C2CC3CC(C2)CC(C3)N1CC(C)C`, for which the melting point lay in the range of 101 to 102 °C.

`COc1cccc(Sc2ccnc(Nc3cccc(CCO)c3)n2)c1` had a melting point of 122 to 124 °C.

On to `Nc1sc2c(c1C(=O)c1ccc(Cl)cc1)CCN(Cc1ccccc1)C2`, for which the melting point lay in the range of 155 to 157 °C.

Consider `CCCCNC(=O)NS(=O)(=O)c1ccc(CCNC(=O)N2Cc3c(Cl)cc(Cl)cc3C2=O)cc1`, for which the melting point fell in the range of 190 to 192 °C.

With `CCOC1CC2(C)C(CCC3C4CC(O)C(Br)C4(C)CC(N(C)C)C32)CC1O` (stereo unspecified), the melting point lay within 173 to 174 °C.

On to `CC1CC(c2c(S(C)(=O)=O)ccc(C(=O)c3cnn(C)c3O)c2Cl)=NO1` (stereo unspecified), for which the melting point lay within 230 to 235 °C.

`CC(C)c1cccc2c1N(CC(=O)N1CC3CCC(CC3)C1)C(=O)C(NC(=O)Nc1cccc(-c3nnn[nH]3)c1)N=C2c1ccccc1F` (stereo unspecified) came in with a melting point of 212 to 222 °C.

For the compound `CC(=NCCO)C1CCC2C3CCC4CC(O)C(N5CCOC(C)C5)CC4(C)C3CCC12C` (stereo unspecified), the melting point fell in the range of 162 to 165 °C.

Turning to `Cc1nc(C(C)O)cn1Cc1ccccc1` (stereo unspecified), the melting point was 162 to 168 °C.

The compound `O=C(c1ccc(Cl)cc1)N1CCc2cc(S(=O)(=O)N3CC(c4ccccc4)NC3=O)ccc21` (stereo unspecified) came in with a melting point of 235 °C.

Compound `CCOC(=O)c1cn(CC)c2nc(C=O)c(OCC)cc2c1=O` came in with a melting point of 169 to 170 °C.

The compound `COc1cccc(OC)c1C(=N)N` registered a melting point of 170 to 174 °C.

As for `O=C(CCCN1CCN(c2cccc(Cl)c2Cl)CC1)N1CCc2ccccc21`, the melting point lay within 134 to 136 °C.

Compound `CC(=O)OC(OC(C)=O)c1cccc(C(OC(C)=O)OC(C)=O)c1` returned a melting point of 110 to 130 °C.

Turning to `Cc1c(-c2cc(F)cc(C(F)(F)F)c2)ccc(N)c1C#N`, the melting point was 96 to 97 °C.

The compound `CCOC(=O)c1[nH]c2cccc(C)c2c1Sc1ccc(Cl)cc1` yielded a melting point of 186 to 188 °C.

On to `COC(=O)c1ccc(C(=O)NS(=O)(=O)c2ccc(C(=O)NCCc3ccc(OC)cc3)cc2)cn1`, for which the melting point lay in the range of 240 to 242 °C.

With `NC(=O)c1ccc2ccccc2c1-c1c(P(=O)(c2ccccc2)c2ccccc2)ccc2ccccc12`, the melting point came to 122 °C.

Compound `CCN(CC)C(=O)CCCC1CCN(Cc2cnc3cc(NC(=O)c4ccc(-c5ccc(F)cc5)cc4)c(C)cc3c2)CC1` showed a melting point of 181 °C.

Consider `C=Cn1cc(C(=O)OCC)c(=O)c2cc(F)c(N3CCNCC3)cc21`, for which the melting point was in the range of 208 to 210 °C.

`O=C1OCCC12Sc1ccc([N+](=O)[O-])cc1C2=O` (stereo unspecified) returned a melting point of 190 to 194 °C.

In turn, `CC(C)(C)NS(=O)(=O)c1ccccc1-c1ccc(NC(=O)C(C)(C)Nc2cccc(C#N)c2)cc1` displayed a melting point of 190 to 193 °C.

`CCCCN(CCCC)CCCOc1ccc(C(=O)c2c(C)oc3c(NS(C)(=O)=O)cccc23)cc1`: the melting point was 135 °C.

In the case of `Cc1cc2c(Cl)c([N+](=O)[O-])cnc2s1`, the melting point lay within 96 to 98 °C.

`COCCOc1ccc(CCCOC(=O)NS(=O)(=O)NCCc2ccccn2)c(Oc2ncc(C(F)(F)F)cc2Cl)c1` yielded a melting point of 91 to 93 °C.

Compound `CC(C)Cn1nnc2cc3c(=O)n(C(C)Cn4ncnn4)nnc3cc2c1=O` (stereo unspecified) yielded a melting point of 132 to 134 °C.

`CC1(C)Oc2ccc(C(=O)CN=[N+]=[N-])cc2S1` yielded a melting point of 52 to 53 °C.

With `CCCCn1c(=O)[nH]c(=S)c2[nH]c(CC)nc21`, the melting point is 206 to 207 °C.

`CCCCCCCCCCCc1nnc2n1-c1ccccc1C(c1ccccc1)OC2` (stereo unspecified) showed a melting point of 83 to 84 °C.

`CC(=O)Nc1c(CC(=O)O)cccc1C(=O)c1ccccc1` registered a melting point of 188 to 190 °C.

`O=C(NCCCCN1CCC(Oc2cccc3ccccc23)CC1)c1ccc(-c2ccc(C(F)(F)F)cc2)cc1` registered a melting point of 166 °C.

In the case of `CCCNC(=O)CC=Cc1ccc2c(c1)c(Cc1ccc(C(=O)OC)cc1OC)cn2CCC`, the melting point lay within 140 to 142 °C.

In turn, `O=C(Oc1c(F)c(F)c(F)c(F)c1F)[C@H]1CCC(=O)N1C(=O)OCc1ccccc1` came in with a melting point of 81 to 82 °C.

The record behind these values is a melting point compilation (Tetko et al.; mined from patent text by program, amines drawn as free bases though some values may be those of a salt).
